Values of other authors in patent US10517855B1, “Interleukins activity inhibiting composition” (priority 2019, dated 2019).

Tests used:
avian malaria = conditions: in vivo
[1] = system: MK-801-induced hyperlocomotion, working memory deficit and social withdrawal; conditions: preclinical studies
[2] = system: apomorphine-induced stereotypy; conditions: preclinical studies
[3] = system: haloperidol-induced catalepsy; conditions: preclinical studies
[4] = preclinical studies
[5] = system: amphetamine-induced lethality and stereotypy; conditions: preclinical studies

Row | SMILES | activity against avian malaria (avian malaria) | MK-801-induced hyperlocomotion [1] | MK-801-induced social withdrawal [1] | MK-801-induced working memory deficit [1] | apomorphine-induced stereotypy [2] | haloperidol-induced catalepsy [3] | anxiolytic-like effects [4] | amphetamine-induced lethality [5] | amphetamine-induced stereotypy [5]
1 | C/C=C1/CN2CC[C@@]34c5cc(O)ccc5N(C)[C@]35OC[C@@]4(C(=O)OC)[C@H]1C[C@H]25 [akuammine] | inactive | – | – | – | – | – | – | – | –
2 | COC(=O)C1=CO[C@@H](C)[C@@H]2Cn3ccc4c5ccccc5nc-4c3C[C@H]12 [Alstonine] | – | attenuates | attenuates | attenuates | attenuates | attenuates | possesses anxiolytic-like effects | attenuates | attenuates
